# Results taken from patent EP1113726B1, “USE OF NEOHESPERIDIN DIHYDROCHALCONE FOR THE MANUFACTURE OF A MEDICAMENT FOR PREVENTING OR TREATING ELEVATED BLOOD LIPID LEVEL-RELATED DISEASES” (Korea Research Institute of Bioscience and Biotechnology, priority 1998, dated 2000).
# How the values were obtained:
# [1] = tested on: New Zealand White rabbits; assay: Analysis for fatty streak in the main artery of cholesterol-fed rabbits (Oil Red O staining); assay type: in vivo; conditions: 1 % cholesterol diet for 6 weeks plus 1 mg/kg Lovastatin or 0.05 % neohesperidin dihydrochalcone
# Protocol: 30 three-month-old New Zealand White rabbits(Yeonam Horticulture and Animal Husbandry College, Korea), each weighing about 2.5 to 2.6 kg, were raised under a condition of temperature 20±2°C, relative humidity 55±5 %, and photoperiod 12L/12D. The rabbits were divided into 3 groups and 3 groups of rabbits were fed with 3 different diets, i.e., RC4 diet(Oriental Yeast Co., Japan) containing 1 % cholesterol(Control group); 1 % cholesterol plus 1 mg/kg Lovastatin®(Merck, U.S.A.)(Lovastatin group); and 1 % cholesterol plus 0.05 % neohesperidin dihydrochalcone(Neohesperidin dihydrochalcone group), respectively. RC4 diet comprises 7.6 % moisture, 22.8 % crude protein, 2.8 % crude fat, 8.8 % crude ash, 14.4 % crude cellulose and 43.6 % soluble nitrogen-free substances. Neohesperidin dihydrochalcone was purchased from Sigma Chemical Co.(St. Louis, MO).
# The rabbits were fed for 6 weeks while being allowed free access to the diets and water.
# The chest of each of the rabbits sacrificed in Step 2 was incised. The downward portion of the main artery from the site 1 cm above the aortic valve was cut out in a length of about 5 cm and the fat surrounding the main artery was removed. The main artery was incised in the middle along the longitudinal axis and pinned to a dish. The moist artery was photographed and, then, the staining of fatty streaks was carried out in accordance with the method of Esper, E., et al. (J. Lab. Clin. Med., 121, 103-110(1993)) as follows.
# A part of the incised main artery was washed three times with anhydrous propylene glycol for 2 min and stained for 30 min. with a saturated solution of Oil Red O(ORO, Sigma Co.) dissolved in propylene glycol. Thereafter, the artery was washed twice with 85 % propylene glycol for 3 min. to remove remaining staining solution and, then washed with physiological saline. The artery was photographed and the photograph was traced. The area of stained region (fatty streak region) was determined with an image analyzer(LEICA, Q-600, Germany) and its proportion(%) to the total arterial area was calculated.
# HMG-CoA reductase = biological target: T1, HMG-CoA reductase (Rattus norvegicus, UniProt P51639); assay: HMG-CoA reductase activity assay (modified Hulcher's method) on liver microsomes of the diet-fed rats; assay type: biochemical; conditions: ex vivo: liver microsomes of rats fed 1 % cholesterol plus 0.05 % neohesperidin dihydrochalcone for six weeks, versus Control group
# T1 construct: the supernatant was ultracentrifuged at 100,000xg for 60 minutes to obtain microsomal precipitates; from tissue; host or cells: rat liver microsomes
# T1 sequence (P51639 1-887): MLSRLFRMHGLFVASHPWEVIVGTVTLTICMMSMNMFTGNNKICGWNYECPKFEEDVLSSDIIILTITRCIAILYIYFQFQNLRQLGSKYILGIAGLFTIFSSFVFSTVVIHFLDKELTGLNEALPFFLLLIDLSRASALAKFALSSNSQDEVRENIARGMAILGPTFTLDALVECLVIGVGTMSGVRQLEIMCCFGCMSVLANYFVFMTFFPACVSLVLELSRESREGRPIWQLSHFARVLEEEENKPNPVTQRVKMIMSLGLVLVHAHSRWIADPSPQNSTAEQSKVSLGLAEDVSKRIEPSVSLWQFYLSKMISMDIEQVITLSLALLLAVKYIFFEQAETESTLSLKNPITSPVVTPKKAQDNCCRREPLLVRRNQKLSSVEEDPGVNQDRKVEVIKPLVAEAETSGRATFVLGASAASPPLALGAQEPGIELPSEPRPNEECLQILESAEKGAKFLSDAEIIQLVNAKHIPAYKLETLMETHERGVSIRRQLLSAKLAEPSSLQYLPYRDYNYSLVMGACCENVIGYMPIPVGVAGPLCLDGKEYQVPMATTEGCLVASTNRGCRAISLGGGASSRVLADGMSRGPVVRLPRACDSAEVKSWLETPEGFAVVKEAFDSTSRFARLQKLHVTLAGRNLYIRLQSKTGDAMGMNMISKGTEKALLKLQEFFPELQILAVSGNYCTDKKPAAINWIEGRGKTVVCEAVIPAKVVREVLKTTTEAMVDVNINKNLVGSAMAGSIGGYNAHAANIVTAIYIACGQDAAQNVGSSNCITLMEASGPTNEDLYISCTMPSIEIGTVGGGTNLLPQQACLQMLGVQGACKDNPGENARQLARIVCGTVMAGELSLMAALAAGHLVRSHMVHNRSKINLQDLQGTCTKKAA
# Protocol: In order to determine the activity of HMG-CoA reductase, Hulcher's method was employed after some modification (see J. Lipid Res., 14, 625-641(1973)). In this method, the concentration of the coenzyme-A(CoA-SH), which is produced when HMG-CoA is reduced to a mevalonate salt by the action of HMG-CoA reductase, is determined by spectroscopy and the activity of HMG-GoA reductase is calculated therefrom.
# 3 g of liver tissue taken from each group of rats of Example 2 was washed succesively with 100 ml of a cold-saline(0.15M NaCl) and 100ml of a cold buffer solution A(0.1M triethanolamine, HCl/0.2M EDTA/2mM dithiothreitol(DTT)). The cold buffer solution A was added to the liver tissue in an amount of 2 ml per 1 g of the liver tissue and the mixture was homogenized with a homogenizer. The homogenate was centrifuged at 15,000xg for 15 minutes, and then, the supernatant was ultracentrifuged at 100,000xg for 60 minutes to obtain microsomal precipitates. […]
# Then, the reactant was mixed with 20µl of DTNB buffer solution(3mM DTNH/0.1M triethanolamine/0.2M EDTA, pH 7.4) and the absorbance of the mixture was determined at 412nm to calculate the amount of CoA-SH(activity of HMG-CoA reductase).
# The extent of inhibition of HMG-CoA reductase activity by neohesperidin dihydrochalcone was calculated based on the above result.
smiles,measurement,setting,value
COc1ccc(CCC(=O)c2c(O)cc(O[C@@H]3O[C@H](CO)[C@@H](O)[C@H](O)[C@H]3O[C@@H]3O[C@@H](C)[C@H](O)[C@@H](O)[C@H]3O)cc2O)cc1O [Neohesperidin dihydrochalcone],A: Proportion(%) of fatty streak region to the total arterial area,[1]; rabbit main artery,12 (±7) %
same,"layer of macrophage-lipid complex on the arterial endothelium (Figs. 1B, 1C)",[1]; rabbits,no or very thin layers of macrophage-lipid complex
same,Inhibition of HMG-CoA reductase activity (%),HMG-CoA reductase,30%
